Data published in US20050208496A1, “Methods of testing for bronchial asthma or chronic obstructive pulmonary disease” (Genox Research, Inc., priority 2002, published 2005).

Tested on: respiratory epithelial cells

Substance: IL-13: human IL-13 (Peprotech, Inc.) added to the medium at 50 ng/mL to stimulate respiratory epithelial cells
- DPP4 (34823_at) expression fold change upon IL-13 stimulation (lot 2, Day 7, AI method): 10 fold
- DPYD (38220_at) expression fold change upon IL-13 stimulation (lot 2, Day 7, AI method): 2.1 fold
- FADS3 (43394_s_at) expression fold change (lot 2, Day 7, AI method): 9.8 fold
- FLJ10261 (43366_at) expression fold change (lot 2, Day 7, AI method): 7.9 fold
- FLJ10261 (43963_at) expression fold change (lot 2, Day 7, AI method): 6.2 fold
- FLJ14281 (50209_at) expression fold change (lot 2, Day 7, AI method): 2 fold
- FLJ22332 (56959_at) expression fold change (lot 2, Day 7, AI method): 3.6 fold
- FLJ22693 (53777_at) expression fold change (lot 2, Day 7, AI method): 1.6 fold
- G1P3 (1358_s_at) expression, fold change upon IL-13 stimulation (lot 2, Day 7, AI method): 10.9 fold
- H11 (56474_at) expression fold change (lot 2, Day 7, AI method): 2.1 fold
- HDAC9 (37483_at) expression fold change upon IL-13 stimulation (lot 2, Day 7, AI method): 26.1 fold
- HLA-F (37420_i_at) expression, fold change upon IL-13 stimulation (lot 2, Day 7, AI method): 2.8 fold
- HLA-F (37421_f_at) expression, fold change upon IL-13 stimulation (lot 2, Day 7, AI method): 2.2 fold
- HLA-F (49203_f_at) expression fold change (lot 2, Day 7, AI method): 2.8 fold
- HLALS (34427_g_at) expression, fold change upon IL-13 stimulation (lot 2, Day 7, AI method): 2 fold
- HS3ST1 (41556_s_at) expression fold change upon IL-13 stimulation (lot 2, Day 7, AI method): 2.5 fold
- HSD17B2 (38178_at) expression fold change upon IL-13 stimulation (lot 2, Day 7, AI method): 3.5 fold
- HSPA5 (47634_at) expression fold change (lot 2, Day 7, AI method): 2.6 fold
- HUMRTVLH3 (34702_f_at) expression, fold change upon IL-13 stimulation (lot 2, Day 7, AI method): 3.1 fold
- Human hbc647 mRNA sequence (34759_at) expression, fold change upon IL-13 stimulation (lot 2, Day 7, AI method): 2.9 fold
- ICAMt (32640_at) expression fold change upon IL-13 stimulation (lot 2, Day 7, AI method): 4.1 fold
- IFI27 (425_at) expression, fold change upon IL-13 stimulation (lot 2, Day 7, AI method): 4.7 fold
- IFI27 (48864_at) expression fold change (lot 2, Day 7, AI method): 3.3 fold
- IFI30 (39728_at) expression, fold change upon IL-13 stimulation (lot 2, Day 7, AI method): 2.3 fold
- IFIT1 (915_at) expression, fold change upon IL-13 stimulation (lot 2, Day 7, AI method): 7.7 fold
- IFIT4 (38584_at) expression, fold change upon IL-13 stimulation (lot 2, Day 7, AI method): 3.6 fold
- IL13RA2 (1016_s_at) expression fold change upon IL-13 stimulation (lot 2, Day 7, AI method): 36.5 fold
- IRF7 (36412_s_at) expression fold change (lot 2, Day 7, AI method): 3.6 fold
- IRLB (32961_at) expression fold change (lot 2, Day 7, AI method): 2 fold
- ISG15 (1107_s_at) expression, fold change upon IL-13 stimulation (lot 2, Day 7, AI method): 4.3 fold
- ISG15 (38432_at) expression, fold change upon IL-13 stimulation (lot 2, Day 7, AI method): 6.9 fold
- KIAA0469 (37230_at) expression, fold change upon IL-13 stimulation (lot 2, Day 7, AI method): 3 fold
- KIAA0537 (33787_at) expression, fold change upon IL-13 stimulation (lot 2, Day 7, AI method): 4.8 fold
- KIAA1199 (36070_at) expression, fold change upon IL-13 stimulation (lot 2, Day 7, AI method): 3.4 fold
- KIAA1268 (57050_at) expression fold change (lot 2, Day 7, AI method): 1.7 fold
- KIAAI268 (59516_at) expression fold change (lot 2, Day 7, AI method): 5.9 fold
- KRT16 (601_s_at) expression fold change (lot 2, Day 7, AI method): 2 fold
- LAMP3 (37168_at) expression, fold change upon IL-13 stimulation (lot 2, Day 7, AI method): 3 fold
- LOC64116 (40456_at) expression, fold change upon IL-13 stimulation (lot 2, Day 7, AI method): 3 fold
- LRPAP1 (36194_at) expression, fold change upon IL-13 stimulation (lot 2, Day 7, AI method): 2.2 fold
- MAT2A (32571_at) expression fold change upon IL-13 stimulation (lot 2, Day 7, AI method): 2.9 fold
- MDA5 (51920_at) expression fold change (lot 2, Day 7, AI method): 2.8 fold
- MED6 (35432_at) expression fold change (lot 2, Day 7, AI method): 2 fold
- MET (1609_g_at) expression, fold change upon IL-13 stimulation (lot 2, Day 7, AI method): 3.4 fold
- MET (1812_s_at) expression, fold change upon IL-13 stimulation (lot 2, Day 7, AI method): 5.8 fold
- MET (35684_at) expression, fold change upon IL-13 stimulation (lot 2, Day 7, AI method): 2.4 fold
- MFHAS1 (50388_at) expression fold change (lot 2, Day 7, AI method): 2.4 fold
- MICB (35937_at) expression, fold change upon IL-13 stimulation (lot 2, Day 7, AI method): 5.6 fold
- MKP-L (38272_at) expression, fold change upon IL-13 stimulation (lot 2, Day 7, AI method): 5.1 fold
- MMP7 (668_s_at) expression, fold change upon IL-13 stimulation (lot 2, Day 7, AI method): 2 fold
- MP1 (34839_at) expression, fold change upon IL-13 stimulation (lot 2, Day 7, AI method): 2.4 fold
- MXI (37014_at) expression fold change (lot 2, Day 7, AI method): 4.2 fold
- NCF2 (41038_at) expression fold change (lot 2, Day 7, AI method): 4.2 fold
- NFIL3 (37544_at) expression fold change (lot 2, Day 7, AI method): 2.7 fold
- NTRK1 (36805_s_at) expression, fold change upon IL-13 stimulation (lot 2, Day 7, AI method): 4.9 fold
- OAF (39695_at) expression, fold change upon IL-13 stimulation (lot 2, Day 7, AI method): 11.4 fold
- OSF-2 (1451_s_at) expression fold change upon IL-13 stimulation (lot 2, Day 7, AI method): 46.4 fold
- PAK2 (1560_g_at) expression, fold change upon IL-13 stimulation (lot 2, Day 7, AI method): 3.8 fold
- PITPNB (353_at) expression, fold change upon IL-13 stimulation (lot 2, Day 7, AI method): 2 fold
- PITPNB (35017_f_at) expression, fold change upon IL-13 stimulation (lot 2, Day 7, AI method): 2.4 fold
- PMCH (32005_at) expression fold change (lot 2, Day 7, AI method): 4.3 fold
- PSMB9 (38287_at) expression fold change upon IL-13 stimulation (lot 2, Day 7, AI method): 2.4 fold
- PVRL2 (50320_g_at) expression fold change (lot 2, Day 7, AI method): 2.2 fold
- RASGRP1 (33291_at) expression fold change (lot 2, Day 7, AI method): 4.2 fold
- SECTM1 (41045_at) expression, fold change upon IL-13 stimulation (lot 2, Day 7, AI method): 4.6 fold
- SERPINB2 (37185_at) expression fold change (lot 2, Day 7, AI method): 3.4 fold
- SERPINB4 (1549_s_at) expression fold change (lot 2, Day 7, AI method): 15 fold
- SIAT1 (41352_at) expression fold change upon IL-13 stimulation (lot 2, Day 7, AI method): 2.4 fold
- SLC26A4, pendrin (36376_at) expression fold change (lot 2, Day 7, AI method): 58.2 fold
- SPHK1 (51923_at) expression fold change (lot 2, Day 7, AI method): 2.5 fold
- SSI-1 (41592_at) expression, fold change upon IL-13 stimulation (lot 2, Day 7, AI method): 11.3 fold
- STAT1 (32859_at) expression fold change (lot 2, Day 7, AI method): 2.6 fold
- STAT1 (33339_g_at) expression fold change (lot 2, Day 7, AI method): 2.5 fold
- TGFB2 (1262_s_at) expression fold change upon IL-13 stimulation (lot 2, Day 7, AI method): 5.9 fold
- TGM2 (38404_at) expression fold change upon IL-13 stimulation (lot 2, Day 7, AI method): 6 fold
- TSPAN-3 (38612_at) expression, fold change upon IL-13 stimulation (lot 2, Day 7, AI method): 2.7 fold
- TXNRD1 (39425_at) expression fold change upon IL-13 stimulation (lot 2, Day 7, AI method): 3.3 fold
- UFD1L (811_at) expression, fold change upon IL-13 stimulation (lot 2, Day 7, AI method): 3.2 fold
- W06879 (57696_at) expression fold change (lot 2, Day 7, AI method): 2 fold
- ZNF263 (33288_i_at) expression fold change (lot 2, Day 7, AI method): 2 fold
- cig5 (38549_at) expression, fold change upon IL-13 stimulation (lot 2, Day 7, AI method): 7.4 fold
- AA045020 (44676_at) expression change (lot 2 Day 7 AI): −7.1
- AA053401 (56234_r_at) expression change (lot 2 Day 7 AI): −3.2
- AA059445 46293_at expression change (lot 2 Day 7 AI): −11.7
- AA059458 (65626_at) expression change (lot 2 Day 7 AI): −4.6
- AA079839 (69289_at) expression change (lot 2 Day 7 AI): −2.3
- AA151265 (60939_i_at) expression change (lot 2 Day 7 AI): −2.7
- AA151265 (60940_r_at) expression change (lot 2 Day 7 AI): −11.6
- AA160156 (47578_at) expression change (lot 2 Day 7 AI): −3.1
- AA203423 (65699_at) expression change (lot 2 Day 7 AI): −4.7
- AA369887 (87539_i_at) expression change (lot 2 Day 7 AI): −2.6
- AA398155 (48999_at) expression change (lot 2 Day 7 AI): −3.8
- AA400080 (57282_at) expression change (lot 2 Day 7 AI): −4.1
- AA422178 (53747_at) expression change (lot 2 Day 7 AI): −32.2
- AA428312 (83988_at) expression change (lot 2 Day 7 AI): −5.4
- AA442232 (59109_at) expression change (lot 2 Day 7 AI): −2.2
- AA456099 (59567_at) expression change (lot 2 Day 7 AI): −3.5
- AA772055 46104_at expression change (lot 2 Day 7 AI): −15.1
- AA779895 59136_at expression change (lot 2 Day 7 AI): −6.6
- ABCC5 1932_at expression change (lot 2 Day 7 AI): −5
- AF052107 38262_at expression change (lot 2 Day 7 AI): −6.5
- AI264299 (84903_f_at) expression change (lot 2 Day 7 AI): −5.9
- AI432375 (49819_at) expression change (lot 2 Day 7 AI): −5
- AI669212 55436_at expression change (lot 2 Day 7 AI): −6.9
- AI740855 (83076_at) expression change (lot 2 Day 7 AI): −3.5
- AI761647 40191_s_at expression change (lot 2 Day 7 AI): −4
